Test results: patent publication US10314847B2, “Scalarane sesterterpenoid, pharmaceutical composition and topoisomerase II and Hsp90 inhibitor for treating cancer, and use and preparation method thereof” (NATIONAL DONG HWA UNIVERSITY, priority 2017, dated 2019)
pIC50: −log10 of the molar value.

What was measured:
Molt 4 = test system: Molt 4
Excerpt: (§1) The cell lines were obtained from the American Type Culture Collection (ATCC, Manassas, Va., U.S.A.) or the Japanese Collection of Research Biosources (JCRB) Cell Bank (Japan). […] Antibodies against XIAP, NFκB (p65), GADD, CDK 4, HSF 1, ATF 6 and β-tubulin were obtained from Santa Cruz Biotechnology (Santa Cruz, Calif., U.S.A.). The Hybond ECL transfer membrane and ECL Western blotting detection kits were obtained from Amersham Life Sciences (Amersham, U.K.).
(§2) Several cancer cell lines including leukemia K562, Molt 4, and HL 60 cells, prostate cancer LNCaP cells, colon cancer DLD-1 cells and breast cancer T-47D cells were used to evaluate the antiproliferative activity (referring to Table 2).
(§3) It is known that mitochondria are critical intracellular loci of ROS production and ROS exposure can lead to the […] opening. The antioxidant, microsomal GST1, in the inner mitochondrial membrane can interact with the mitochondrial permeability transition (MPT) regulator proteins, such as ANT and/or CypD, to form a MPT pore contributing to mitochondria-mediated cell death. In addition, mitochondrial homeostasis of tumor cells is regulated by an organelle-specific Hsp90 chaperone network.

U937 = assay: MTT assay, cytotoxic effect on U937; type: cell-based; conditions: Homo sapiens, U-937; U937, molar value in text
Excerpt: as §1, §2

human topoisomerase II = target: T1, human topoisomerase II (Homo sapiens, UniProt P11388); assay: Assay of topoisomerase II catalytic inhibitors and poisons (cell-free pHOT1 DNA relaxation/cleavage); type: biochemical; conditions: cell-free system; read-out: Topo II activity IC50 (converted)
T1 construct: purchased Topogen
Description: Assay of Topoisomerase II Catalytic Inhibitors and Poisons:
Reactions were terminated by adding 2 μL of 10% SDS to facilitate trapping the enzyme in a cleavage complex, followed by the addition of 2.5 μL of proteinase K (50 μg/mL) to digest the bound protein (incubated at 37° C. for 15 minutes) and finally by adding 0.1 volume of the sample loading dye. The DNA products were analyzed via electrophoresis through vertical 2% agarose gels at 2 voltage/cm in 0.5×TAE buffer. Gels were stained with ethidium bromide (EtBr) and photographed using an Eagle Eye II system (Stratagene, La Jolla, Calif., U.S.A.). The quantitative analysis of the DNA Topo II activity was performed.

Molt 4 cells [1] = assay: Intracellular calcium accumulation (Fluo 3, flow cytometry); type: cell-based, human
Description: Determination of Reactive Oxygen Species (ROS) Generation, Calcium Accumulation, and Matrix Metalloproteinase (MMP) Disruption:
MMP disruption, calcium accumulation and ROS generation were detected with the JC-1 cationic dye (5 μg/mL), the fluorescent calcium indicator (Fluo 3, […]) and the carboxy derivative of fluorescein (carboxy-H2DCFDA, […]), respectively. In brief, the treated cells were labeled with a specific fluorescent dye for 30 minutes. After labeling, cells were washed with PBS and resuspended in PBS at a concentration of 1×10^6 cells/mL before analysis via flow cytometry.
Oxidative stress is manifested by ROS overexpression and cannot be balanced by the available antioxidant machinery. Compound 1 of the present invention can damage the integrity of mitochondria, which are the major production sites of the superoxide anion, […]. The induction of the intracellular formation of ROS by compound 1 was determined with a carboxyl derivative of fluorescein, carboxy-H2DCFDA dye using flow cytometric analysis. […] Furthermore, the effect of compound 1 on the release of intracellular Ca^2+, was evaluated using fluorescent calcium indicator, Fluo 3. […] Thus, the effect of compound 1 (0.0625 μg/mL) at different time intervals (0, 3, 6 and 9 hours) on the level of nuclear DNA integrity was determined. […]

[2] = test system: apoptosis-related proteins; assay: Western blot of apoptosis-related proteins; type: cell-based, human; conditions: Molt 4 cells, time-dependent
Description: Oxidative stress is manifested by ROS overexpression and cannot be balanced by the available antioxidant machinery. Compound 1 of the present invention can damage the integrity of mitochondria, which are the major production sites of the superoxide anion, […]. The induction of the intracellular formation of ROS by compound 1 was determined with a carboxyl derivative of fluorescein, carboxy-H2DCFDA dye using flow cytometric analysis. […] In addition, ROS generation could induce ER stress leading to mitochondria-related apoptosis. To further investigate if ER stress is involved in the apoptotic effect induced by compound 1, Western blot analysis was used to determine the expression of ER stress-related proteins. […] Furthermore, the effect of compound 1 on the release of intracellular Ca^2+, was evaluated using fluorescent calcium indicator, Fluo 3. […] In FIG. 4(D), the induction of the typical executor caspases-3 and -7, and γH2AX, was also observed using Western blot analysis. To confirm the induction of DNA damage by compound 1 in Molt 4 cells, a comet assay under neutral electrophoresis condition was utilized. Thus, the effect of compound 1 (0.0625 μg/mL) at different time intervals (0, 3, 6 and 9 hours) on the level of nuclear DNA integrity was determined. […]

Molt 4 cells [3] = assay: Neutral comet assay for DNA double-strand breaks; type: cell-based, human; conditions: 0.0625 μg/mL, 0, 3, 6 and 9 hours
Description: Neutral Comet Assay for Detection of DNA Double-Strand Breaks (DSBs):
The assay was carried out using a CometAssay™ Kit (Trevigen, Gaithersburg, Md., U.S.A.) following the manufacturer's protocol for the neutral Comet assay. Briefly, cancer cells (2×10^5 cells/mL) were treated with compound 1 (0.0625 μg/mL) at the indicated time. Cells were combined with 1% low melting point agarose at a ratio of 1:10 (v/v) and immediately 75 μL of the mixture was pipetted onto CometSlide™ and allowed to set at 4° C. in the dark. The slides were immersed in an ice-cold lysis solution (Trevigen) for 30 to 60 minutes. […] The fluorescence images were analyzed using the TriTek Comet Image program to circumscribe the “head” and the “tail” regions of each comet and the integrated fluorescence values of each defined area were recorded. The comet length was measured from the trailing edge of the nucleus to the leading edge of the tail. […] The results were expressed as mean±standard deviation (SD) (*p<0.05).
Oxidative stress is manifested by ROS overexpression and cannot be balanced by the available antioxidant machinery. […] The induction of the intracellular formation of ROS by compound 1 was determined with a carboxyl derivative of fluorescein, carboxy-H2DCFDA dye using flow cytometric analysis. […]

[4] = target: T2, Hsp90 protein (PDB ID: 1YET) (Homo sapiens, UniProt P07900); assay: Molecular docking (Autodock 4.2)
T2 construct: Compound 1 could be docked to the N-terminal domain of Hsp90
Excerpt: as §3

T1 sequence (P11388 whole entry): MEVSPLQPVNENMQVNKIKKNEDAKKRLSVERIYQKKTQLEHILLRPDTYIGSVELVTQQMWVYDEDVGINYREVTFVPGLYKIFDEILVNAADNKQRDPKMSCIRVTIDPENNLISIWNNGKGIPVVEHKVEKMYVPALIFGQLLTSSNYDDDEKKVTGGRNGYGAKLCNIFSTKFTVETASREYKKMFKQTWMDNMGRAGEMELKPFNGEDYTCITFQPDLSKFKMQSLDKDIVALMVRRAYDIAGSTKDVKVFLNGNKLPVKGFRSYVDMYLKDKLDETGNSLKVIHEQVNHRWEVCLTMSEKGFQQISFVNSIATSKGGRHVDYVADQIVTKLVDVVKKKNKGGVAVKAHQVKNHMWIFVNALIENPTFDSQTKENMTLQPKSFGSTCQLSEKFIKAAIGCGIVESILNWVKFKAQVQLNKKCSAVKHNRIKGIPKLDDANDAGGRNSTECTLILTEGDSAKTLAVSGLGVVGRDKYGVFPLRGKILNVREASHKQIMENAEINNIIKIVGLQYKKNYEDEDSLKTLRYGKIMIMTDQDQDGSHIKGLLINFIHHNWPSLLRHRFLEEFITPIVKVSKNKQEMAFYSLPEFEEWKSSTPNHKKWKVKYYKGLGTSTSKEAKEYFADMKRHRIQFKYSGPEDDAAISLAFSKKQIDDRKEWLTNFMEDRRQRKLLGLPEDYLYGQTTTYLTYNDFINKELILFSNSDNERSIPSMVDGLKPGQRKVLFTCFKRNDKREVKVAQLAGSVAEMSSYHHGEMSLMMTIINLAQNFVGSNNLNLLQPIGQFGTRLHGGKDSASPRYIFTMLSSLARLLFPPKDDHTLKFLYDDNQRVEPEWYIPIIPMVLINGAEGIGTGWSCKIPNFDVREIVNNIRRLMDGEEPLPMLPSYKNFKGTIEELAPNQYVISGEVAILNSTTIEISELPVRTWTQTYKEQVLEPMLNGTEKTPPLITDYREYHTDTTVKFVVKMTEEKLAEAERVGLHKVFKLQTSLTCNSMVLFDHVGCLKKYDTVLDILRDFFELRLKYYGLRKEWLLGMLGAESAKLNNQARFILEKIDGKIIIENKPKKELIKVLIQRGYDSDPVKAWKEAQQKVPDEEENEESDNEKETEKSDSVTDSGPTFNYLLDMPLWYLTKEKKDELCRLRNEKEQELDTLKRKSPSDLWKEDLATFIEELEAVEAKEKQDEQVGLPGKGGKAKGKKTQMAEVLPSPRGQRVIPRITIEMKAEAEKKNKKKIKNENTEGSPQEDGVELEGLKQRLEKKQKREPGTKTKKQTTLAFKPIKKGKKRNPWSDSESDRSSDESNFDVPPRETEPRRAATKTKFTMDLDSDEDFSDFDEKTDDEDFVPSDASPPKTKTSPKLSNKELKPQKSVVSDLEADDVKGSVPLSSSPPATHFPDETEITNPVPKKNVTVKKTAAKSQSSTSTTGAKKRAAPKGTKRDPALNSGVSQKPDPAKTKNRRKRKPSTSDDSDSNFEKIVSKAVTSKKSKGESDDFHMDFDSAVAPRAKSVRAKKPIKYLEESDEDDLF

CC[C@@]1(C)CCC[C@]2(C)[C@H]3C[C@@H](OC(=O)C[C@@H](C)O)[C@]4(C)[C@@H](C=O)C(C(C)=O)=CC[C@H]4[C@]3(C)CC[C@@H]12 (relative stereo) [Compound 1, 12β-(3′β-hydroxybutanoyloxy)-20,24-dimethyl-24-oxo-scalara-16-en-25-al]
Cytotoxic effect IC50, Molt 4 (Molt 4): 0.01 µg/mL
pIC50 (U937): 8.68
IC50 (human topoisomerase II): 3950 nM
Increase in intracellular Ca2+ accumulation versus MFI of control (Molt 4 cells [1]; 2 hours): 1.06 folds
Increase in intracellular Ca2+ accumulation versus MFI of control (Molt 4 cells [1]; 18 hours): 1.06 folds
Cleavage of apoptosis-related proteins [2]: PARP, caspases-8 and -9 cleavages were significantly increased in a time-dependent manner
DNA migration (comet tail, DSBs) (Molt 4 cells [3]): increased the degree of DNA migration
Potency of Hsp90 inhibition constant relative to 17-AAG [4]: > 1430 folds
Cytotoxic effect IC50, Cal-27 (Cal-27): 0.56 µg/mL
